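1) Cells in 96-well plates. 2) Compound, 48 h, 5 concentrations. 3) Linear interpolation between surrounding doses. 4) Unreached endpoint = highest concentration. At the GI50, growth is halved. The concentration for full growth arrest is given as TGI.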
Assays:
Test in all cases: NCI-60 cell line screen, 48 h
OVCAR-5 ovarian = test system: OVCAR-5 ovarian
UO-31 renal = test system: UO-31 renal
KM12 colon = test system: KM12 colon
DU-145 prostate = test system: DU-145 prostate
HCC-2998 colon = test system: HCC-2998 colon
HCT-15 colon = test system: HCT-15 colon
ACHN renal = test system: ACHN renal
NCI-H460 lung = test system: NCI-H460 lung
CCRF-CEM leukemia = test system: CCRF-CEM leukemia
K-562 leukemia = test system: K-562 leukemia
SNB-19 CNS = test system: SNB-19 CNS
HOP-62 NSCLC = test system: HOP-62 NSCLC
HL-60(TB) leukemia = test system: HL-60(TB) leukemia
MDA-MB-231 breast = test system: MDA-MB-231 breast
SF-539 CNS = test system: SF-539 CNS
MOLT-4 leukemia = test system: MOLT-4 leukemia
PC-3 prostate = test system: PC-3 prostate
A549 NSCLC = test system: A549 NSCLC
OVCAR-8 ovarian = test system: OVCAR-8 ovarian
MCF7 breast = test system: MCF7 breast
M14 melanoma = test system: M14 melanoma
IGROV1 ovarian = test system: IGROV1 ovarian
RPMI-8226 leukemia = test system: RPMI-8226 leukemia
NCI-H522 lung = test system: NCI-H522 lung
HT29 colon = test system: HT29 colon
EKVX NSCLC = test system: EKVX NSCLC
SK-MEL-2 melanoma = test system: SK-MEL-2 melanoma
OVCAR-3 ovarian = test system: OVCAR-3 ovarian
SNB-75 CNS = test system: SNB-75 CNS
SK-MEL-28 melanoma = test system: SK-MEL-28 melanoma
A498 renal = test system: A498 renal
OVCAR-4 ovarian = test system: OVCAR-4 ovarian
UACC-257 melanoma = test system: UACC-257 melanoma
HCT-116 colon = test system: HCT-116 colon
SF-295 CNS = test system: SF-295 CNS
NCI/ADR-RES ovarian = test system: NCI/ADR-RES ovarian
MALME-3M melanoma = test system: MALME-3M melanoma
SK-MEL-5 melanoma = test system: SK-MEL-5 melanoma
COLO 205 colon = test system: COLO 205 colon
CAKI-1 renal = test system: CAKI-1 renal
MDA-MB-435 = test system: MDA-MB-435
NCI-H23 lung = test system: NCI-H23 lung
BT-549 breast = test system: BT-549 breast
UACC-62 melanoma = test system: UACC-62 melanoma
SF-268 CNS = test system: SF-268 CNS
786-0 renal = test system: 786-0 renal

SMILES: COc1ccc2[nH]c3c(C)c4ccnc(NCCCN(C)CCCNc5ccc([N+](=O)[O-])c6[nH]c7ccccc7c(=O)c56)c4c(C)c3c2c1
- TGI (OVCAR-5 ovarian): 1260 nM
- TGI (UO-31 renal): 2210 nM
- TGI (KM12 colon): 1430 nM
- TGI (DU-145 prostate): 1270 nM
- TGI (HCC-2998 colon): 568 nM
- TGI (HCT-15 colon): 680 nM
- TGI (ACHN renal): 648 nM
- TGI (NCI-H460 lung): 67.8 nM
- TGI (CCRF-CEM leukemia): 4.12 µM
- TGI (K-562 leukemia): 4.41 µM
- TGI (SNB-19 CNS): 1420 nM
- TGI (HOP-62 NSCLC): 1060 nM
- TGI (HL-60(TB) leukemia): 50 µM
- TGI (MDA-MB-231 breast): 1810 nM
- TGI (SF-539 CNS): 726 nM
- TGI (MOLT-4 leukemia): 989 nM
- TGI (PC-3 prostate): 1210 nM
- TGI (A549 NSCLC): 78.3 nM
- TGI (OVCAR-8 ovarian): 1110 nM
- TGI (MCF7 breast): 95.4 nM
- TGI (M14 melanoma): 988 nM
- TGI (IGROV1 ovarian): 755 nM
- TGI (RPMI-8226 leukemia): 50 µM
- TGI (NCI-H522 lung): 822 nM
- TGI (HT29 colon): 107 nM
- TGI (EKVX NSCLC): 964 nM
- TGI (SK-MEL-2 melanoma): 1460 nM
- TGI (OVCAR-3 ovarian): 1200 nM

SMILES: CCCN1CCN(c2ccc3nc(-c4ccc5nc(-c6ccc(C(F)(F)F)cc6)[nH]c5c4)[nH]c3c2)CC1
- GI50 (SNB-75 CNS): 1500 nM
- TGI (SNB-75 CNS): 2930 nM
- GI50 (SK-MEL-28 melanoma): 1780 nM
- TGI (SK-MEL-28 melanoma): 3.25 µM
- GI50 (A498 renal): 1870 nM
- TGI (A498 renal): 3.77 µM
- GI50 (OVCAR-5 ovarian): 1930 nM
- TGI (OVCAR-5 ovarian): 3360 nM
- GI50 (KM12 colon): 1780 nM
- TGI (KM12 colon): 3320 nM
- GI50 (DU-145 prostate): 1900 nM
- TGI (DU-145 prostate): 3360 nM
- GI50 (OVCAR-4 ovarian): 1750 nM
- TGI (OVCAR-4 ovarian): 3.44 µM
- GI50 (UACC-257 melanoma): 1850 nM
- TGI (UACC-257 melanoma): 3.57 µM
- GI50 (HCC-2998 colon): 1890 nM
- TGI (HCC-2998 colon): 3460 nM
- GI50 (ACHN renal): 1600 nM
- TGI (ACHN renal): 2960 nM
- GI50 (HCT-116 colon): 1380 nM
- TGI (HCT-116 colon): 2710 nM
- GI50 (SF-295 CNS): 1660 nM
- TGI (SF-295 CNS): 3.1 µM
- GI50 (NCI/ADR-RES ovarian): 6.46 µM
- TGI (NCI/ADR-RES ovarian): > 100 µM
- GI50 (HOP-62 NSCLC): 1560 nM
- TGI (HOP-62 NSCLC): 3150 nM
- GI50 (HL-60(TB) leukemia): 2000 nM
- TGI (HL-60(TB) leukemia): 3.76 µM
- GI50 (MDA-MB-231 breast): 1980 nM
- TGI (MDA-MB-231 breast): 3520 nM
- GI50 (MALME-3M melanoma): 1350 nM
- TGI (MALME-3M melanoma): 2770 nM
- GI50 (SF-539 CNS): 1770 nM
- TGI (SF-539 CNS): 3200 nM
- GI50 (SK-MEL-5 melanoma): 1770 nM
- TGI (SK-MEL-5 melanoma): 3.48 µM
- GI50 (COLO 205 colon): 1520 nM
- TGI (COLO 205 colon): 3.24 µM
- GI50 (MOLT-4 leukemia): 1870 nM
- TGI (MOLT-4 leukemia): 3620 nM
- GI50 (CAKI-1 renal): 1760 nM
- TGI (CAKI-1 renal): 3.2 µM
- GI50 (M14 melanoma): 1480 nM
- TGI (M14 melanoma): 2880 nM
- GI50 (MDA-MB-435): 1860 nM
- TGI (MDA-MB-435): 3.47 µM
- GI50 (NCI-H23 lung): 1710 nM
- TGI (NCI-H23 lung): 3.22 µM
- GI50 (EKVX NSCLC): 1870 nM
- TGI (EKVX NSCLC): 3330 nM
- GI50 (BT-549 breast): 1750 nM
- TGI (BT-549 breast): 3.2 µM
- GI50 (UACC-62 melanoma): 1660 nM
- TGI (UACC-62 melanoma): 3.23 µM
- GI50 (SF-268 CNS): 1880 nM
- TGI (SF-268 CNS): 3.56 µM
- GI50 (SK-MEL-2 melanoma): 1920 nM
- TGI (SK-MEL-2 melanoma): 3580 nM
- GI50 (OVCAR-3 ovarian): 1650 nM
- TGI (OVCAR-3 ovarian): 3070 nM
- GI50 (786-0 renal): 1780 nM
- TGI (786-0 renal): 3.27 µM
